Data reported in patent US7214470B2, “Fluorine-containing ethylenic monomer having hydroxyl group or fluoroalkyl carbonyl group and fluorine-containing polymer prepared by polymerization of same” (priority 2001, dated 2007).

Assay: Measurement of pKa by titration with NaOH solution in water/acetone
Format: physicochemical
Settings: for Measured pKa Exp. Ex. 2: monomer, titration with NaOH solution in water/acetone, room temperature
Procedure: In a solution of water/acetone of 10/15 ml was put 0.7865 g of CH2═CHCH2C(CF3)2OH, followed by stirring at room temperature. After it was confirmed that the solution became homogeneous, titration was carried out with a 0.2 mol/liter NaOH solution. A titration curve was obtained by adding a NaOH solution dropwise in increments of 0.15 ml and recording a pH value at every addition. An equivalence point was determined by an inflection point (maximum differential value of titration curve=dpH/dml) of the titration curve. In this case, the equivalence point was 14.5 ml. […] From a titration curve of water/acetone solution and aqueous solution which had been measured previously as a blank solution, a difference in a pH value derived from an electric potential difference between the solutions at titration of 7.25 ml was 1.29.
In case of titration of 1.0865 g of CH2═CHCH2C(CF3)2OH by the same procedures as above, an equivalence point was 20.15 ml and a half of equivalence point was 10.08 ml. A pH value at a half of the equivalence point was 10.78.
When the same procedures as above were carried out except that about 0.05 mol/liter NaOH solution was used as a titration solution, an equivalence point of 0.115 g of CH2═CHCH2C(CF3)2OH was 8.00 ml and a half of equivalence point was 4.00 ml. A pH value at this time was 10.92.
From those experiments carried out three times, a pKa value of CH2═CHCH2C(CF3)2OH was determined as 9.6.
With respect to the various fluorine-containing ethylenic monomers having OH group shown in Table 1, a pKa value was measured by the same procedures as above.

Compound | pKa | Measured pKa Exp. Ex. 2 | pKa value (single titration) (0.115 g, about 0.05 mol/liter NaOH) | pKa value (single titration) (0.7865 g, 0.2 mol/liter NaOH, water/acetone 10/15 ml) | pKa value (single titration) (1.0865 g, 0.2 mol/liter NaOH)
OC(C(F)=C(F)F)(C(F)(F)F)C(F)(F)F [Prep. Ex. 1, 1,1-bistrifluoromethyl-2,3,3-trifluoro-2-propene-1-ol] | 7.1 |  |  |  | 
C=C(F)C(F)(F)OC(F)(C(F)(F)F)C(F)(F)OC(F)(CO)C(F)(F)F (stereo not shown) [perfluoro-(1,1,1,9,9-tetrahydro-2,5-bistrifluoromethyl-3,6-dioxanonenol)] |  | 12.6 |  |  | 
C=C(F)C(O)(C(F)(F)F)C(F)(F)F [Ex. 4, 1,1-bistrifluoromethyl-2-fluoro-2-propene-1-ol] | 8 |  |  |  | 
CH2═CHCH2C(CF3)2OH |  | 9.6 | 9.54 | 9.69 | 9.64
